Where two headings read alike, the source gives them in different places.
What was measured:
plasma proteins = test: Plasma protein binding (RED), monkey plasma; type: in vitro ADME
Protocol: The plate containing plasma and buffer was equilibrated for 6 h in a 37°C water shaking bath. After incubation, aliquots of buffer and plasma (20 µL) on both sides were collected and precipitated using organic solvents. […] The post-dialysis recovery of amdizalisib was also measured.

[1] = male, ICR, mouse, in vivo, iv
Protocol: (§1) All intravenous and oral dose formulations were analyzed by liquid chromatography coupled with tandem mass spectrometry (LC-MS/MS) to confirm test article concentration and determine formulation stability.
(§2) Animals had free access to food, and water was allowed ad libitum. […] The blood samples were collected with sodium heparin as an anticoagulant. The plasma samples were obtained from blood samples by centrifugation and stored at −80°C until analysis.
(§3) A total of eighteen mice were divided into intravenous (IV) and oral (PO) administration groups, with nine animals in each group. The mice were fasted overnight with free access to water before dosing. […] After the mice were anesthetized with isoflurane, approximately 100 μL of whole blood was collected through the retro-orbital sinus and transferred to a 1.5 mL tube containing sodium heparin. The gathered blood samples were kept on ice until centrifugation. Plasma samples were harvested by centrifugation at 1,500 g for 10 min at 4°C.
(§4) Pharmacokinetic parameters were calculated by a non-compartmental method using Thermo Kinetica® (Version 5.1 SP1, Thermo Electron Corporation, Philadelphia, Pennsylvania, United States). The area under the plasma concentration–time curve from time zero to the time of the last measurable sample (AUC0-t) or the plasma concentration–time curve from time zero to infinity (AUC0-inf) was calculated using the linear trapezoidal method.

[2] = Metabolic stability in mouse liver microsomes; type: in vitro ADME
Protocol: FMO was deactivated by heating liver microsomes at 45°C for 5 min. […] (1) metabolic clearance is the major mechanism of clearance; (2) liver is the major organ of clearance; and (3) oxidation is the major metabolic pathway. CLint,in vitro=k / Cmicrosomes , Scaled CLint,in vivo=CLint,in vitro×microsomes yield×liver weight, where Cmicrosomes means the experimental protein concentration (0.5 mg/mL) in the incubation system.

[3] = Single-dose PK in ICR mice (IV/PO)
Protocol: as §1, §2, §3, §4

OCT2 = molecular target: T1, OCT2 (Homo sapiens, UniProt O15244); test: OCT2 inhibition, metformin uptake in transfected HEK293 cells
T1 sequence (O15244 1-555): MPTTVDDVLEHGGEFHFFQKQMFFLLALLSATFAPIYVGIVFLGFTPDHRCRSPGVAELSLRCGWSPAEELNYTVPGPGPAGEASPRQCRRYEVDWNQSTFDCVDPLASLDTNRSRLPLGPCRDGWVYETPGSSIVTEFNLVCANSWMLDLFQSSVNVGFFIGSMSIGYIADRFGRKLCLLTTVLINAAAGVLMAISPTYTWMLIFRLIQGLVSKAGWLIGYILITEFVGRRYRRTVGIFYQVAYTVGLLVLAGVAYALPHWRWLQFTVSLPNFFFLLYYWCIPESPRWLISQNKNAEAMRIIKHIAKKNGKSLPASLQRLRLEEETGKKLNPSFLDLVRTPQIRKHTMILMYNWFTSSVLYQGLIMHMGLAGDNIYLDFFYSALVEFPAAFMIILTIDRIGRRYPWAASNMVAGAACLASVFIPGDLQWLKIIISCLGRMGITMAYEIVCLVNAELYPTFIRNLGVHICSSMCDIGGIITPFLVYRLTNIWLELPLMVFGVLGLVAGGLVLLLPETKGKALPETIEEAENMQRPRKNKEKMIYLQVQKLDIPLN
Protocol: The pre-incubation solutions were removed, and incubation solutions containing the inhibitors and probe substrates (or transport buffer containing an equal volume of vehicle control and probe substrates) were added and incubated at 37°C for 2 min (5 min for OATP1B3). The probe substrate for OAT1 was 4-aminohippuric acid (10 μM), for OAT3 was estrone 3-sulfate (10 μM), for OCT2 was metformin (100 μM), for OATP1B1 was β-estradiol 17-(β-D-glucuronide) (5 μM), for OATP1B3 was β-estradiol 17-(β-D-glucuronide) (10 μM), and for MATE1 and MATE2-K was tetraethylammonium (10 μM). After incubation, cells were washed three times with ice-cold transport buffer (25 mM HEPES, pH 7.4, pH 8.0 for overexpressing MATE1 and MATE2-K HEK293 cells) and lysed in distilled water. The concentrations of probe substrates were determined by LC-MS/MS, and a BCA Kit (Solarbio ®Life Sciences, Beijing, China) was used to determine the protein content in the cell lysate.
where C is the concentration of the drug in the cell lysate (nM), P is the protein concentration of the cell lysate (mg/mL), and T is the incubation time (minute). Uptake ratetest compound is the uptake rate of the substrate in the presence of the test compound. Uptake ratevehicle control is the uptake rate of the substrate in the presence of the vehicle control. Uptake ratepassive is the uptake rate of the substrate in the presence of the positive inhibitor at the top test concentration.

[4] = male, ICR, mouse, in vivo, iv, 2.5 mg/kg
[5] = male, ICR, mouse, in vivo, po, 10 mg/kg

## C[C@H](Nc1ncnc(N)c1C#N)c1cc2ncc(Cl)n2nc1-c1ccccc1 [Amdizalisib]
Plasma proteins; 0.1 µM
  Binding fraction to plasma proteins, Monkey: 90.6 ± 4.56%
Plasma proteins; 1 µM
  Binding fraction to plasma proteins, Monkey: 89.7 ± 0.22%
Plasma proteins; 20 µM
  Binding fraction to plasma proteins, Monkey: 88.9 ± 0.38%
[1]
  CL as % of the hepatic blood flow: 16.3%
[2]; female, mouse, microsomes, pH 7.4, Predicted CL int, iv vivo
  CLint scaled at 1 µM: 3.17 L/h/kg
[2]; female, mouse, microsomes, pH 7.4, in vitro t1/2
  half-life at 1 µM: 1.7 h
[2]; male, mouse, microsomes, pH 7.4, Predicted CL int, iv vivo
  CLint scaled at 1 µM: 3.02 L/h/kg
[2]; male, mouse, microsomes, pH 7.4, in vitro t1/2
  half-life at 1 µM: 1.8 h
[2]; pH 7.4, female mouse liver microsomes, FMO deactivation, read-out: in vitro t1/2
  half-life at 1 µM: 1.72 h
[2]; pH 7.4, female mouse liver microsomes, normal, read-out: Predicted CL int, iv vivo
  CLint scaled at 1 µM: 3.22 L/h/kg
[3]; ICR mouse, fasted, PO 10 mg/kg
  FPO: 101%
[3]; [4]
  AUC(0-inf): 2.83 µg·h/mL
  AUC(0-t): 2.71 µg·h/mL
  MRT: 2.12 h
  Vd: 1.87 L/kg
  clearance: 0.882 L/h/kg
  half-life: 2.06 h
[3]; [5]
  AUC(0-inf): 13.7 µg·h/mL
  AUC(0-t): 10.9 µg·h/mL
  Cmax: 3.08 µg/mL
  MRT: 4.91 h
  half-life: 4.16 h
OCT2
  IC50: > 100 µM
  calculated R value (OCT2): < 1.1
OCT2; OCT2, compound 0.3 μM
  Percentage transported: 98.7%
  Uptake rate: 772±136 pmol/mg protein/min
OCT2; OCT2, compound 1 μM
  Percentage transported: 93.3%
  Uptake rate: 733±47.7 pmol/mg protein/min
OCT2; OCT2, compound 3 μM
  Percentage transported: 95.1%
  Uptake rate: 746±13.4 pmol/mg protein/min
OCT2; OCT2, compound 10 μM
  Percentage transported: 92.7%
  Uptake rate: 728±32.8 pmol/mg protein/min
OCT2; OCT2, compound 30 μM
  Percentage transported: 108%
  Uptake rate: 839±49.9 pmol/mg protein/min
OCT2; OCT2, compound 100 μM
  Percentage transported: 50.8%
  Uptake rate: 429±46.2 pmol/mg protein/min
OCT2; human, pH 7.4
  inhibition at 2 min, 0.3 µM: 1.28%
  inhibition at 2 min, 1 µM: 6.72%
  inhibition at 2 min, 3 µM: 4.92%
  inhibition at 2 min, 10 µM: 7.34%
  inhibition at 2 min, 30 µM: -8.07%
  inhibition at 2 min, 100 µM: 49.2%
